Source: PMC6151588, “Four Prenylflavone Derivatives with Antiplasmodial Activities from the Stem of Tephrosia purpurea subsp. leptostachya” (Molecules : A Journal of Synthetic Chemistry and Natural …, 2017)
Entries after “also recorded” stand apart in the source; their conditions may differ. Read-outs that look alike come from different tables or passages of the source. Blank lines part the entries; values can stand above or below the molecule they belong to.

Columns and labels:
[1] = MTT cytotoxicity assay, A549; format: cell-based; conditions: human, A549 cells (adenocarcinomic alveolar basal epithelial cells), cancer cell
Description: (§1) A549, HepG2, and non-tumoral cells were all purchased from ATCC. Cells were cultured in RPMI 1640 medium supplemented with 10% fetal bovine serum and antibiotics penicillin (50 U/mL) and streptomycin (50 μg/mL; Invitrogen, Paisley, Scotland, UK). All cell cultures were incubated at 37 °C in a 5% humidified CO2 incubator. All tested compounds were dissolved in DMSO at a final concentration of 50 mmol/L and stored at −20 °C before use. Cytotoxicity was assessed by using the 3-(4,5-dimethylthiazol-2-yl)-2,5-diphenyltetrazolium bromide (MTT) (5.0 mg/mL) assay as previously described. Briefly, 4 × 10^3 cells per well were seeded in 96-well plates before drug treatments. After overnight culture, the cells were then exposed to different concentrations of selected compounds (0.039–100 μmol/L) for 72 h. Cells without drug treatment were used as the control. Subsequently, MTT (10 μL) solution was added to each well and incubated at 37 °C for 4 h followed by the addition of 100 μL solubilization buffer (10% SDS in 0.01 mol/L HCl) and overnight incubation. A570 nm was then determined in each well on the next day. The percentage of cell viability was calculated using the following formula: Cell viability (%) = Atreated/Acontrol × 100. Data were obtained from three independent experiments and the standard error was calculated.

[2] = MTT cytotoxicity assay, HepG2; format: cell-based; conditions: human, HepG2 cells (liver cancer cell line)
Description: as §1

[3] = MTT cytotoxicity assay, BEAS; format: cell-based; conditions: human, non-tumoral cell
Description: as §1

[4] = test system: chloroquine-sensitive D6 strain of Plasmodium falciparum; assay: In vitro antiplasmodial activity, non-radioactive (fluorescence-based) assay; format: cell-based; conditions: for Antiplasmodial activity in words: D6 strain of Plasmodium falciparum; for IC50: Plasmodium falciparum
Description: The pure compounds were assayed using a non-radioactive assay technique as described by […] al., 2004 [32] with modifications given in the literature.

[5] = MTT cytotoxicity assay, LO2; format: cell-based; conditions: human, LO2 cells (immortal hepatic cell line), non-tumoral cell
Description: as §1

[6] = MTT cytotoxicity, summary over the four cell-lines; format: cell-based; conditions: human, two non-tumoral and two cancerous cell-lines; read-out: Cytotoxicity IC50 against four cell-lines
Description: as §1

[7] = test system: two non-tumoral and two cancerous cell-lines (LO2, BEAS, A549, HepG2); assay: MTT cytotoxicity, summary over the four cell-lines; format: cell-based
Description: as §1

[8] = D6 strain, in vitro, read-out: Antiplasmodial activity against P. falciparum D6, IC50

Structure (SMILES): COc1cc(OC(C)=O)c(C2COC(C)(C)C2=O)c2oc(-c3ccccc3)cc(=O)c12 (stereo not drawn) [Compound 4, 8-(5,5-dimethyl-4-oxotetrahydrofuran-3-yl)-5-methoxy-4-oxo-2-phenyl-4H-chromen-7-yl acetate]
IC50 at 72 h [1]: > 100 µM | IC50 at 72 h [2]: > 100 µM | IC50 at 72 h [3]: > 100 µM | Antiplasmodial activity in words [4]: low antiplasmodial activities | IC50 [4, 8]: 14.8 ± 3.2 µM | IC50 at 72 h [5]: > 100 µM | melting point: 210 to 214 °C

Structure (SMILES): COc1cc(O)c2c(=O)cc(-c3ccccc3)oc2c1/C=C/C(C)=O [Compound 2, (E)-5-hydroxy-7-methoxy-8-(3-oxobut-1-en-1-yl)-2-phenyl-4H-chromen-4-one]
IC50 at 72 h [1]: > 100 µM | IC50 at 72 h [2]: > 100 µM | IC50 at 72 h [3]: > 100 µM | IC50 at 72 h [5]: > 100 µM

Second part, led by results:

IC50 [4, 8]: 27.1 ± 3.2 µM
Structure (SMILES): COc1cc(OC)c2c(=O)cc(-c3ccccc3)oc2c1C1=COC(C)(C)C1=O [Compound 9, tachrosin]
IC50 at 72 h [1]: > 100 µM | IC50 at 72 h [2]: > 100 µM | IC50 at 72 h [3]: > 100 µM | Antiplasmodial activity in words [4]: low antiplasmodial activities | IC50 at 72 h [5]: > 100 µM

IC50 ([4]; D6, read-out: Antiplasmodial activity against P. falciparum D6, IC50): 0.037 ± 0.003 µM
Structure (SMILES): CCN(CC)CCCC(C)Nc1ccnc2cc(Cl)ccc12 (stereo not drawn) [Chloroquine, reference compound]

IC50 [4, 8]: 1.7 ± 0.1 µM
Structure (SMILES): COc1cc(O)c2c(=O)cc(-c3ccccc3)oc2c1/C=C/C(C)(C)O [Compound 1, (E)-5-hydroxy-8-(3-hydroxy-3-methylbut-1-en-1-yl)-7-methoxy-2-phenyl-4H-chromen-4-one]
IC50 at 72 h [1]: 76.1 ± 2.9 µM | IC50 at 72 h [2]: > 100 µM | IC50 at 72 h [3]: 24.5 ± 2.7 µM | Antiplasmodial activity in words [4]: good activity; also recorded: the most active | IC50 at 72 h [5]: 21.7 ± 4.8 µM | IC50 at 72 h [6]: 21 to 100 µM | Selectivity index ([7]; cytotoxicity versus antiplasmodial activity (D6)): > 12 | IC50 ([7]; two non-tumoral and two cancerous cell-lines, read-out: Cytotoxicity IC50 against four cell-lines): > 21 µM
